Assay results taken from US10681909B2, “Herbicidal triazoles” (FMC Corporation, priority 2014, dated 2020).

Assays:
barnyardgrass [1] = test: Test A preemergence; assay type: in vivo, Echinochloa crus-galli; details: 0 to 100 scale (0 no effect, 100 complete control)
Source text: (§1) Seeds of plant species selected from barnyardgrass (Echinochloa crus-galli), crabgrass, large (large crabgrass, Digitaria sanguinalis), kochia (Kochia scoparia), ragweed (common ragweed, Ambrosia elatior), foxtail, giant (giant foxtail, Setaria faberii), morningglory (Ipomoea spp.), pigweed (Amaranthus retroflexus), velvetleaf (Abutilon theophrasti), ryegrass, Italian (Italian ryegrass, Lolium multiflorum), wheat (Triticum aestivum), and corn (Zea mays) were planted into a blend of loam soil and sand and treated preemergence with a directed soil spray using test chemicals formulated in a non-phytotoxic solvent mixture which included a surfactant. At the same time, plants selected from these crop and weed species and also blackgrass (Alopecurus myosuroides), and galium (catchweed bedstraw, Galium aparine), were planted in pots containing the same blend of loam soil and sand and treated with postemergence applications of test chemicals formulated in the same manner. Plants ranged in height from 2 to 10 cm and were in the one- to two-leaf stage for the postemergence treatment. […] A dash (-) response means no test result.

kochia [2] = test: Test A preemergence; assay type: in vivo, Kochia scoparia; details: 0 to 100 scale (0 no effect, 100 complete control)
Source text: (§2) Seeds of plant species selected from barnyardgrass (Echinochloa crus-galli), crabgrass, large (large crabgrass, Digitaria sanguinalis), kochia (Kochia scoparia), ragweed (common ragweed, Ambrosia elatior), foxtail, giant (giant foxtail, Setaria faberii), morningglory (Ipomoea spp.), pigweed (Amaranthus retroflexus), velvetleaf (Abutilon theophrasti), ryegrass, Italian (Italian ryegrass, Lolium multiflorum), wheat (Triticum aestivum), and corn (Zea mays) were planted into a blend of loam soil and sand and treated preemergence with a directed soil spray using test chemicals formulated in a non-phytotoxic solvent mixture which included a surfactant.
(§3) At the same time, plants selected from these crop and weed species and also blackgrass (Alopecurus myosuroides), and galium (catchweed bedstraw, Galium aparine), were planted in pots containing the same blend of loam soil and sand and treated with postemergence applications of test chemicals formulated in the same manner. Plants ranged in height from 2 to 10 cm and were in the one- to two-leaf stage for the postemergence treatment. Treated plants and untreated controls were maintained in a greenhouse for approximately 10 d, after which time all treated plants were compared to untreated controls and visually evaluated for injury. Plant response ratings, summarized in Table A, are based on a 0 to 100 scale where 0 is no effect and 100 is complete control. A dash (-) response means no test result.

ragweed [3] = test: Test A preemergence; assay type: in vivo, Ambrosia elatior; details: 0 to 100 scale (0 no effect, 100 complete control)
Source text: as §2, §3

foxtail, giant [4] = test: Test A preemergence; assay type: in vivo, Setaria faberii; details: 0 to 100 scale (0 no effect, 100 complete control)
Source text: as §1

pigweed [5] = test: Test A preemergence; assay type: in vivo, Amaranthus retroflexus; details: 0 to 100 scale (0 no effect, 100 complete control)
Source text: as §1

ryegrass, Italian [6] = test: Test A preemergence; assay type: in vivo, Lolium multiflorum; details: 0 to 100 scale (0 no effect, 100 complete control)
Source text: as §2, §3

barnyardgrass [7] = test: Test A postemergence; assay type: in vivo, Echinochloa crus-galli; details: 0 to 100 scale (0 no effect, 100 complete control), approx. 10 d
Source text: as §1

kochia [8] = test: Test A postemergence; assay type: in vivo, Kochia scoparia; details: 0 to 100 scale (0 no effect, 100 complete control), approx. 10 d
Source text: as §2, §3

ragweed [9] = test: Test A postemergence; assay type: in vivo, Ambrosia elatior; details: 0 to 100 scale (0 no effect, 100 complete control), approx. 10 d
Source text: as §2, §3

foxtail, giant [10] = test: Test A postemergence; assay type: in vivo, Setaria faberii; details: 0 to 100 scale (0 no effect, 100 complete control), approx. 10 d
Source text: as §1

pigweed [11] = test: Test A postemergence; assay type: in vivo, Amaranthus retroflexus; details: 0 to 100 scale (0 no effect, 100 complete control), approx. 10 d
Source text: as §1

ryegrass, Italian [12] = test: Test A postemergence; assay type: in vivo, Lolium multiflorum; details: 0 to 100 scale (0 no effect, 100 complete control), approx. 10 d
Source text: as §2, §3

wheat = test: Test A postemergence; assay type: in vivo, Triticum aestivum; details: 0 to 100 scale (0 no effect, 100 complete control), approx. 10 d
Source text: as §1

corn = test: Test A postemergence; assay type: in vivo, Zea mays; details: 0 to 100 scale (0 no effect, 100 complete control), approx. 10 d
Source text: as §1

blackgrass = test: Test A postemergence; assay type: in vivo, Alopecurus myosuroides; details: 0 to 100 scale (0 no effect, 100 complete control), approx. 10 d
Source text: as §2, §3

galium = test: Test A postemergence; assay type: in vivo, Galium aparine; details: 0 to 100 scale (0 no effect, 100 complete control), approx. 10 d
Source text: as §2, §3

SMILES | Plant response rating, Barnyardgrass (barnyardgrass [1]; 31 g ai/ha) | Plant response rating, Barnyardgrass (barnyardgrass [1]; 125 g ai/ha) | Plant response rating, Kochia (kochia [2]; 31 g ai/ha) | Plant response rating, Kochia (kochia [2]; 125 g ai/ha) | Plant response rating, Ragweed (ragweed [3]; 31 g ai/ha) | Plant response rating, Ragweed (ragweed [3]; 125 g ai/ha) | Plant response rating, Foxtail, Giant (foxtail, giant [4]; 31 g ai/ha) | Plant response rating, Foxtail, Giant (foxtail, giant [4]; 125 g ai/ha) | Plant response rating, Pigweed (pigweed [5]; 31 g ai/ha) | Plant response rating, Pigweed (pigweed [5]; 125 g ai/ha) | Plant response rating, Ryegrass, Italian (ryegrass, Italian [6]; 31 g ai/ha) | Plant response rating, Ryegrass, Italian (ryegrass, Italian [6]; 125 g ai/ha) | Plant response rating, Barnyardgrass (barnyardgrass [7]; 31 g ai/ha) | Plant response rating, Barnyardgrass (barnyardgrass [7]; 125 g ai/ha) | Plant response rating, Kochia (kochia [8]; 31 g ai/ha) | Plant response rating, Kochia (kochia [8]; 125 g ai/ha) | Plant response rating, Ragweed (ragweed [9]; 31 g ai/ha) | Plant response rating, Ragweed (ragweed [9]; 125 g ai/ha) | Plant response rating, Foxtail, Giant (foxtail, giant [10]; 31 g ai/ha) | Plant response rating, Foxtail, Giant (foxtail, giant [10]; 125 g ai/ha) | other results
Cc1nc(-c2ccc(OC(F)(F)F)cc2)nn1Cc1ccnc(C(F)(F)F)c1 [Compound 37] | 0 | 0 | 0 | 0 | 0 | 0 | 0 | 0 | 10 | 20 | 0 | 0 | 0 | 0 | 20 | 70 | 0 | 0 | 0 | 0 | Plant response rating, Pigweed (pigweed [11]; 31 g ai/ha): 20; Plant response rating, Pigweed (pigweed [11]; 125 g ai/ha): 80; Plant response rating, Ryegrass, Italian (ryegrass, Italian [12]; 31 g ai/ha): 0; Plant response rating, Ryegrass, Italian (ryegrass, Italian [12]; 125 g ai/ha): 0; Plant response rating, Wheat (wheat; 31 g ai/ha): 0; Plant response rating, Wheat (wheat; 125 g ai/ha): 0; Plant response rating, Corn (corn; 31 g ai/ha): 10; Plant response rating, Corn (corn; 125 g ai/ha): 20; Plant response rating, Blackgrass (blackgrass; 31 g ai/ha): 0; Plant response rating, Blackgrass (blackgrass; 125 g ai/ha): 20; Plant response rating, Galium (galium; 31 g ai/ha): 0; Plant response rating, Galium (galium; 125 g ai/ha): 20
CCc1nc(-c2ccncc2)nn1Cc1ccnc(C(F)(F)F)c1 [Compound 39] | 0 | 0 | 0 | 0 | 0 | 0 | 0 | 30 | 30 | 90 | 0 | 0 | 0 | 10 | 50 | 70 | 20 | 30 | 10 | 20 | Plant response rating, Pigweed (pigweed [11]; 31 g ai/ha): 60; Plant response rating, Pigweed (pigweed [11]; 125 g ai/ha): 70; Plant response rating, Ryegrass, Italian (ryegrass, Italian [12]; 31 g ai/ha): 0; Plant response rating, Ryegrass, Italian (ryegrass, Italian [12]; 125 g ai/ha): 0; Plant response rating, Wheat (wheat; 31 g ai/ha): 0; Plant response rating, Wheat (wheat; 125 g ai/ha): 0; Plant response rating, Corn (corn; 31 g ai/ha): 0; Plant response rating, Corn (corn; 125 g ai/ha): 20; Plant response rating, Blackgrass (blackgrass; 31 g ai/ha): 0; Plant response rating, Blackgrass (blackgrass; 125 g ai/ha): 0; Plant response rating, Galium (galium; 31 g ai/ha): 40; Plant response rating, Galium (galium; 125 g ai/ha): 60
FC(F)(F)COc1nc(-c2ccc(C(F)(F)F)cc2)nn1Cc1ccnc(C(F)(F)F)c1 [Compound 34] | 30 | 100 | 20 | 90 | 0 | 30 | 100 | 100 | 100 | 100 | 0 | 90 | 20 | 70 | 70 | 90 | 20 | 50 | 20 | 90 | Plant response rating, Pigweed (pigweed [11]; 31 g ai/ha): 100; Plant response rating, Pigweed (pigweed [11]; 125 g ai/ha): 100; Plant response rating, Ryegrass, Italian (ryegrass, Italian [12]; 31 g ai/ha): 0; Plant response rating, Ryegrass, Italian (ryegrass, Italian [12]; 125 g ai/ha): 20; Plant response rating, Wheat (wheat; 31 g ai/ha): 30; Plant response rating, Wheat (wheat; 125 g ai/ha): 50; Plant response rating, Corn (corn; 31 g ai/ha): 20; Plant response rating, Corn (corn; 125 g ai/ha): 20; Plant response rating, Blackgrass (blackgrass; 31 g ai/ha): 20; Plant response rating, Blackgrass (blackgrass; 125 g ai/ha): 50; Plant response rating, Galium (galium; 31 g ai/ha): 30; Plant response rating, Galium (galium; 125 g ai/ha): 90
